Source: ChEMBL document CHEMBL1157388, “Recent developments in fragment-based drug discovery” (J Med Chem, 2008)

Columns and labels:
[1] = target: T1, Queuine tRNA-ribosyltransferase catalytic subunit 1 (Homo sapiens, UniProt Q9BXR0)
T1 sequence (Q9BXR0 whole entry): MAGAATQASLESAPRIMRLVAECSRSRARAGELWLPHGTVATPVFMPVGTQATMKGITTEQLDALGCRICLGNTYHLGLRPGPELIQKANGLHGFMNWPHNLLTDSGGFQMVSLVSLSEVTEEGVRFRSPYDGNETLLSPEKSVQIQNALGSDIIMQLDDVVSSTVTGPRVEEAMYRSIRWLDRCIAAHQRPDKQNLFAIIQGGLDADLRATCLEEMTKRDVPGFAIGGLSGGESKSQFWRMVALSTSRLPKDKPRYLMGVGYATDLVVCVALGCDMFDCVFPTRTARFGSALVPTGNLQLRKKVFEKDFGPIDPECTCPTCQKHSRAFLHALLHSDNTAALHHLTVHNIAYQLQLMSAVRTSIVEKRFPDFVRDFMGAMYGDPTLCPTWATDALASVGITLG

[2] = target: T2, Caspase-1 (Homo sapiens, UniProt P29466); assay: Inhibition of caspase 1
T2 sequence (P29466 whole entry): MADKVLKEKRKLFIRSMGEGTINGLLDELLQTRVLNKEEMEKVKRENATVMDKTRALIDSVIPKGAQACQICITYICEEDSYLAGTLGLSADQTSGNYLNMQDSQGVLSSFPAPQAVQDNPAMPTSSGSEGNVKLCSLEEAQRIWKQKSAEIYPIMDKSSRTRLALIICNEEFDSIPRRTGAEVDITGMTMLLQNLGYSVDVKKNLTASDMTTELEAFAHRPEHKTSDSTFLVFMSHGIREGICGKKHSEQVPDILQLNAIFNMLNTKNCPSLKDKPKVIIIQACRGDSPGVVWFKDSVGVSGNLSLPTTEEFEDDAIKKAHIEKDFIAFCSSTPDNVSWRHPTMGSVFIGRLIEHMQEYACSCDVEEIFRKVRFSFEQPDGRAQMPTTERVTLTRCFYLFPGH

[3] = target: Carbonic anhydrase 2 (Bos taurus, UniProt P00921)
Sequence of Carbonic anhydrase 2 (P00921 whole entry): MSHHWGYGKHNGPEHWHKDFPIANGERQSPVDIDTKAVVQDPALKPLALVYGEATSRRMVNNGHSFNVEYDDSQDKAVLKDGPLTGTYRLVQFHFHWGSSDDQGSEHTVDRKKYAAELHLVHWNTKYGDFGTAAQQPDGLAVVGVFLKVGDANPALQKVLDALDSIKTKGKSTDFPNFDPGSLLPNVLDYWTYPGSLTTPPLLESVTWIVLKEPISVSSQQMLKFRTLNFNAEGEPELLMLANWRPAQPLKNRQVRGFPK

[4] = target: T3, Aurora kinase A (Homo sapiens, UniProt O14965)
T3 sequence (O14965 whole entry): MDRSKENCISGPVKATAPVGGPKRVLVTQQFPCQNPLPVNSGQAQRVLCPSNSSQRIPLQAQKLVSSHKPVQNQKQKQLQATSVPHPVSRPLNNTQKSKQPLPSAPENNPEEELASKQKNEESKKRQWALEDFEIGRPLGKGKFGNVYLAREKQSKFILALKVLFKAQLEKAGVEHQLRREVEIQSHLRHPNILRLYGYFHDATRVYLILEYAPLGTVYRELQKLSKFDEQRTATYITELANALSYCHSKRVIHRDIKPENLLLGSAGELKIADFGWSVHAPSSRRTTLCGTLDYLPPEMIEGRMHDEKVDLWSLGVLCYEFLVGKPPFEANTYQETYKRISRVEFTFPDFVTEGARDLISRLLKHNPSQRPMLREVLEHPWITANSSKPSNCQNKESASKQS

[5] = target: RAC-alpha serine/threonine-protein kinase (Homo sapiens, UniProt P31749); assay: Inhibition of protein kinase B
Sequence of RAC-alpha serine/threonine-protein kinase (P31749 whole entry): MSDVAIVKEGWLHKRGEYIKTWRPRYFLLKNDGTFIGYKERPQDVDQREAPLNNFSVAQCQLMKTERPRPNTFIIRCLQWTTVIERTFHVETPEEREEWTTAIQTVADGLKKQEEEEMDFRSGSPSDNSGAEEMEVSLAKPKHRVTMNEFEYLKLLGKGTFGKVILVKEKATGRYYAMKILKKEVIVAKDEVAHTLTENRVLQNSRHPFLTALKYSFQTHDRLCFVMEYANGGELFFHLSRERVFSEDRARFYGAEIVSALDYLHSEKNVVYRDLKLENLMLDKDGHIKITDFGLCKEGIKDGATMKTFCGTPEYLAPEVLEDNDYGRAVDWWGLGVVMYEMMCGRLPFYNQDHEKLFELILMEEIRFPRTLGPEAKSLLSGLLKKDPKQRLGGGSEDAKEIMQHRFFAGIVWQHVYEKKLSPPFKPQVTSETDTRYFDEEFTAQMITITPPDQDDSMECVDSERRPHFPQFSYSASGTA

[6] = target: Heat shock protein HSP 90-beta (Homo sapiens, UniProt P08238)
Sequence of Heat shock protein HSP 90-beta (P08238 whole entry): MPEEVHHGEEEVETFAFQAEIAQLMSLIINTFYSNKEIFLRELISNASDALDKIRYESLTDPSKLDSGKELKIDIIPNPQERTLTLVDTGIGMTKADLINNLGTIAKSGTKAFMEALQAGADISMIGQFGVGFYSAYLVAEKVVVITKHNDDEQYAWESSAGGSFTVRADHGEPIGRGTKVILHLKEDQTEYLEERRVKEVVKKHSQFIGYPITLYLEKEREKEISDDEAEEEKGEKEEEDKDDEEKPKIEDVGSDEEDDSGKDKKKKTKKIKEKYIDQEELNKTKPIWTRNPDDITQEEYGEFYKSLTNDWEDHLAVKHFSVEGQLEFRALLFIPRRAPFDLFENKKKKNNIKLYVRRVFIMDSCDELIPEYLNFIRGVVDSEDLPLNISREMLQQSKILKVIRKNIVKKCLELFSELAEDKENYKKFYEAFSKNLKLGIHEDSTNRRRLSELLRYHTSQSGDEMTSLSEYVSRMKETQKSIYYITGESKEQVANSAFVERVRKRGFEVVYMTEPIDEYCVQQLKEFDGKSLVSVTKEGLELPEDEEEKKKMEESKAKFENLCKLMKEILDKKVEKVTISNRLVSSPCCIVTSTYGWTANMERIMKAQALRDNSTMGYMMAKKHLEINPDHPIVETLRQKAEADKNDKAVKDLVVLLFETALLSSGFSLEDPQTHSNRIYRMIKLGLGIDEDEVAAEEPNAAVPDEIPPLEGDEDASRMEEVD

[7] = target: Urokinase-type plasminogen activator (Homo sapiens, UniProt P00749)
[8] = Inhibition of PDE4
[9] = target: Prothrombin (Homo sapiens, UniProt P00734); assay: Inhibition of thrombin

`Nc1nc2ccccc2c(=O)[nH]1` showed a Ki [1] of 2100 nM.

Work on `O=C[C@H](CC(=O)O)NC(=O)CCCCCNC(=O)c1ccc(Nc2cnc3ccccc3n2)cc1` yielded an IC50 [2] of 190 nM.

`COc1ccc(CCc2c3nc[nH]c3cc3c(=O)[nH]c(N)nc23)cc1` gave a Ki [1] of 3700 nM.

Work on `C#Cc1ccc(S(N)(=O)=O)cc1` yielded a Kd [3] of 37 nM.

With `COc1cc2[nH]c3ncnc(N4CCN(C(=S)Nc5ccc(S(=O)(=O)Nc6ncccn6)cc5)CC4)c3c2cc1OC` the IC50 [4] was 94 nM.

For `c1ccc(-c2cn[nH]c2)cc1`, the IC50 [5] was 135000 nM.

With `Cc1cc(C#Cc2ccccc2/C=N/N2CCOC2=O)nc(N)n1` the Kd [6] was 4000 nM.

`Nc1ccc(S(=O)(=O)Nc2ncccn2)cc1` [SULFADIAZINE] showed an IC50 [4] of 21000 nM.

In the case of `O=C[C@H](CC(=O)O)NC(=O)c1ccc(CNC(=O)c2ccc(Nc3cnc4ccccc4n3)cc2)nc1`, the IC50 [2] is reported as 5 nM.

In the case of `Nc1nc2cc(O)ccc2[nH]1`, the IC50 [7] is reported as 200000 nM.

For `CC(C)[C@@H](C(=O)N1CC2CCC(CC2)C1)n1cc(-c2ccc(S(N)(=O)=O)cc2)nn1`, the Kd [3] was 0.2 nM.

Work on `COc1cc2[nH]c3ncnc(Cl)c3c2cc1OC` yielded an IC50 [4] of 3000 nM.

`CCOC(=O)c1c(C)nn(-c2ccccc2Cl)c1C` showed an IC50 [8] of 19 nM.

Work on `COc1ccc(S(=O)(=O)NC[C@@H](O)[C@H](Cc2ccccc2)NCc2cc(Cl)ccc2-n2cnnn2)cc1` yielded an IC50 [9] of 4 nM.

With `O=C1OCC/C1=C\Nc1ccccc1` the Kd [6] was 150000 nM.
